Data: US11236106B2, “Cycloalkane-1,3-diamine derivative” (Daiichi Sankyo Company, Limited, priority 2018, dated 2022)
Structures can show the parent of a compound that is named as a salt. Where two headings read alike, the source gives them in different places.

Molecular target: T1, menin and MLL (menin, Flag tagged; biotinylated MLL1 peptide 1-46aa) (Homo sapiens, UniProt O00255)
T1 sequence (O00255 1-610): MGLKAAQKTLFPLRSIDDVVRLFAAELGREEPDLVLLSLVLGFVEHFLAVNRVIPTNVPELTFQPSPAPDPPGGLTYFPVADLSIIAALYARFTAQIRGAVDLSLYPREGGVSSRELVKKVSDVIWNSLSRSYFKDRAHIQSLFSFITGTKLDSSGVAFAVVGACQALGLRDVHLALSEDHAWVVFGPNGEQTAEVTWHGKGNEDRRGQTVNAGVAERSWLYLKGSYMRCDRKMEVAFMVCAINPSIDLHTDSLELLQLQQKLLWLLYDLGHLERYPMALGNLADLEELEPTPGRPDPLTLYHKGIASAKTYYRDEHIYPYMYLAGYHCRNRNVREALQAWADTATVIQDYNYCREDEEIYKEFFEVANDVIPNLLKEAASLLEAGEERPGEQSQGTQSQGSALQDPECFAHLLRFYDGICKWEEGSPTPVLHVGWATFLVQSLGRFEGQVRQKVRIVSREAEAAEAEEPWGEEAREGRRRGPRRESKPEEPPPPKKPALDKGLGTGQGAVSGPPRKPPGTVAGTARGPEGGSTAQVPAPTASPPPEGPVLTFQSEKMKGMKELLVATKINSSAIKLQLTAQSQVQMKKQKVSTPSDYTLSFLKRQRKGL
Experiment: biochemical

[1] = IC50, binding inhibitory activity between menin and MLL, AlphaLISA, 1 nM menin, 10 nM biotinylated MLL1 peptide

Protocol: Then, the fluorescence signal by AlphaLISA (registered trademark, PerkinElmer Co., Ltd.) was measured using a plate reader (PerkinElmer Co., Ltd., EnVisionXcite).

COc1cc(-c2ccc(CN[C@H]3C[C@@H](O)[C@@H](N(C)c4ncnc5sc(CC(F)(F)F)cc45)C3)cc2)nnc1N1CCC1 [Example 105, (1R,2S,4R)-4-[({4-[6-(azetidin-1-yl)-5-methoxypyridazin-3-yl]phenyl}methyl)amino]-2-{methyl[6-(2,2,2-trifluoroethyl)thieno[2,3-d]pyrimidin-4-yl]amino}cyclopentan-1-ol hydrochloride]
IC50: 8 nM

COc1nc(N(C)[C@H]2C[C@@H](NCc3ccc(-c4cnc(C#N)c(OC)c4)cc3)C[C@H]2O)c2cc(CC(F)(F)F)sc2n1 [Example 106, 5-[4-({[(1R,3R,4S)-3-hydroxy-4-{[2-methoxy-6-(2,2,2-trifluoroethyl)thieno[2,3-d]pyrimidin-4-yl](methyl)amino}cyclopentyl]amino}methyl)phenyl]-3-methoxypyridine-2-carbonitrile hydrochloride]
IC50 [1]: 0.7 nM

COc1cc(-c2ccc(CN[C@H]3C[C@@H](O)[C@@H](N(C)c4ncnc5sc(CC(F)(F)F)cc45)C3)cc2)nnc1Oc1cccnc1 [Example 107, (1R,2S,4R)-4-{[(4-{5-methoxy-6-[(pyridin-3-yl)oxy]pyridazin-3-yl}phenyl)methyl]amino}-2-{methyl[6-(2,2,2-trifluoroethyl)thieno[2,3-d]pyrimidin-4-yl]amino}cyclopentan-1-ol hydrochloride]
IC50 [1]: 1.3 nM

COCCOc1nnc(-c2ccc(CN[C@H]3C[C@@H](O)[C@@H](N(C)c4nc(OC)nc5sc(CC(F)(F)F)cc45)C3)cc2)cc1OC [Example 109, (1R,2S,4R)-4-[({4-[5-methoxy-6-(2-methoxyethoxy)pyridazin-3-yl]phenyl}methyl)amino]-2-{[2-methoxy-6-(2,2,2-trifluoroethyl)thieno[2,3-d]pyrimidin-4-yl](methyl)amino}cyclopentan-1-ol hydrochloride]
IC50: 0.7 nM

COc1nc(N(C)[C@H]2C[C@@H](NCc3ccc(-c4nnc(OC(F)F)cc4OC)cc3)C[C@H]2O)c2cc(CC(F)(F)F)sc2n1 [Example 110, (1R,2S,4R)-4-[({4-[6-(difluoromethoxy)-4-methoxypyridazin-3-yl]phenyl}methyl)amino]-2-{[2-methoxy-6-(2,2,2-trifluoroethyl)thieno[2,3-d]pyrimidin-4-yl](methyl)amino}cyclopentan-1-ol hydrochloride]
IC50 [1]: 2.1 nM

COc1nc(N(C)[C@H]2C[C@@H](NCc3ccc(-c4nn(C(F)F)c(=O)cc4OC)cc3)C[C@H]2O)c2cc(CC(F)(F)F)sc2n1 [Example 111, 2-(difluoromethyl)-6-[4-({[(1R,3R,4S)-3-hydroxy-4-{[2-methoxy-6-(2,2,2-trifluoroethyl)thieno[2,3-d]pyrimidin-4-yl](methyl)amino}cyclopentyl]amino}methyl)phenyl]-5-methoxypyridazin-3(2H)-one hydrochloride]
IC50 [1]: 42.3 nM

COc1nc(N(C)[C@H]2C[C@@H](NCc3ccc(-c4cnc(CO)c(OC)c4)cc3)C[C@H]2O)c2cc(CC(F)(F)F)sc2n1 [Example 112, (1R,2S,4R)-4-[({4-[6-(hydroxymethyl)-5-methoxypyridin-3-yl]phenyl}methyl)amino]-2-{[2-methoxy-6-(2,2,2-trifluoroethyl)thieno[2,3-d]pyrimidin-4-yl](methyl)amino}cyclopentan-1-ol hydrochloride]
IC50 [1]: 0.8 nM

C=CC(=O)N(C)c1nnc(-c2ccc(CN[C@H]3C[C@@H](O)[C@@H](N(C)c4nc(OC)nc5sc(CC(F)(F)F)cc45)C3)cc2)cc1OC [Example 113, N-{6-[4-({[(1R,3R,4S)-3-hydroxy-4-{[2-methoxy-6(2,2,2-trifluoroethyl)thieno[2,3-d]pyrimidin-4-yl](methyl)amino}cyclopentyl]amino}methyl)phenyl]-4-methoxypyridazin-3-yl}-N-methylprop-2-enamide hydrochloride]
IC50 [1]: 29.2 nM

COc1nc(N(C)[C@H]2C[C@@H](NCc3ccc(-c4cc(OC)c(Oc5ccccc5)nn4)cc3)C[C@H]2O)c2cc(CC(F)(F)F)sc2n1 [Example 114, (1R,2S,4R)-4-({[4-(5-methoxy-6-phenoxypyridazin-3-yl)phenyl]methyl}amino)-2-{[2-methoxy-6-(2,2,2-trifluoroethy)thieno[2,3-d]pyrimidin-4-yl](methyl)amino}cyclopentan-1-ol hydrochloride]
IC50: 1.5 nM

COc1nc(N(C)[C@H]2C[C@@H](NCC3CCN(c4cc(OC)c(OC)nn4)CC3)C[C@H]2O)c2cc(CC(F)(F)F)sc2n1 [Example 115, (1R,2S,4R)-4-({[1-(5,6-dimethoxypyridazin-3-yl)piperidin-4-yl]methyl}amino)-2-{[2-methoxy-6-(2,2,2-trifluoroethyl)thieno[2,3-d]pyrimidin-4-yl](methyl)amino}cyclopentan-1-ol hydrochloride]
IC50 [1]: 10.9 nM

COc1nc(N(C)[C@H]2C[C@@H](NCc3ccc(-c4cc(OC)c(OC)cn4)cc3)C[C@H]2O)c2cc(CC(F)(F)F)sc2n1 [Example 116, (1R,2S,4R)-4-({[4-(4,5-dimethoxypyridin-2-yl)phenyl]methyl}amino)-2-{[2-methoxy-6-(2,2,2-trifluoroethyl)thieno[2,3-d]pyrimidin-4yl](methyl)amino}cyclopentan-1-ol hydrochloride]
IC50: 1 nM

COc1nc(N(C)[C@H]2C[C@@H](NCc3ccc(-c4cnc(N(C)C)c(OC)c4)cc3)C[C@H]2O)c2cc(CC(F)(F)F)sc2n1 [Example 117, (1R,2S,4R)-4-[({4-[6-(dimethylamino)-5-methoxypyridin-3-yl]phenyl}methyl)amino]-2-{[2-methoxy-6-(2,2,2-trifluoroethyl)thieno[2,3-d]pyrimidin-4-yl](methyl)amino}cyclopentan-1-ol hydrochloride]
IC50 [1]: 1.4 nM

COc1nc(N(C)[C@H]2C[C@@H](NCc3ccc(-c4cc(OC)c(OC5CCN(S(C)(=O)=O)CC5)nn4)cc3)C[C@H]2O)c2cc(CC(F)(F)F)sc2n1 [Example 118, (1R,2S,4R)-4-({[4-(6-{[1-(methanesulfonyl)piperidin-4-yl]oxy}-5-methoxypyridazin-3-yl)phenyl]methyl}amino)-2-{[2-methoxy-6-(2,2,2-trifluoroethyl)thieno[2,3-d]pyrimidin-4-yl(methyl)amino}cyclopentan-1-ol hydrochloride]
IC50 [1]: 1 nM

COc1nc(N(C)[C@H]2C[C@@H](NCc3cccc(Nc4cccnc4)c3)C[C@H]2O)c2cc(CC(F)(F)F)sc2n1 [Example 120, (1R,2S,4R)-2-{[2-methoxy-6-(2,2,2-trifluoroethyl)thieno[2,3-d]pyrimidin-4-yl](methyl)amino}-4-[({3-[(pyridin-3-yl)amino]phenyl}methyl)amino]cyclopentan-1-ol hydrochloride]
IC50 [1]: 5.8 nM

[2H]C([2H])([2H])N(c1ncc(-c2ccc(CN[C@H]3C[C@@H](O)[C@@H](N(C)c4ncnc5sc(CC(F)(F)F)cc45)C3)cc2)cc1OC)C([2H])([2H])[2H] [Example 122, (1R,2S,4R)-4-({[4-(6-{bis[(^2H3)methyl]amino}-5-methoxypyridin-3-yl)phenyl]methyl}amino)-2-{methyl[6-(2,2,2-trifluoroethyl)thieno[2,3-d]pyrimidin-4-yl]amino}cyclopentan-1-ol]
IC50 [1]: 1.7 nM

[2H]C([2H])([2H])Oc1cc(-c2ccc(CN[C@H]3C[C@@H](O)[C@@H](N(C)c4nc(OC)nc5sc(CC(F)(F)F)cc45)C3)cc2)nnc1OC([2H])([2H])[2H] [Example 123, (1R,2S,4R)-4-{[(4-{5,6-bis[(^2H3)methyloxy]pyridazin-3-yl}phenyl)methyl}amino}-2-{[2-methoxy-6-(2,2,2-trifluoroethyl)thieno[2,3-d]pyrimidin-4-yl](methyl}amino}cyclopentan-1-ol]
IC50 [1]: 0.6 nM

CN(c1ncnc2sc(CC(F)(F)F)cc12)[C@H]1C[C@@H](NCc2cccc(-c3cccnc3)c2)C[C@H]1O [Example 124, (1R,2S,4R)-2-{methyl[6-(2,2,2-trifluoroethyl)thieno[2,3-d]pyrimidin-4-yl]amino}-4-({[3-(pyridin-3-yl)phenyl]methyl}amino)cyclopentan-1-ol hydrochloride]
IC50 [1]: 182 nM

COc1cc(-c2ccc(CN[C@H]3CC[C@H](OC)[C@@H](Nc4ncnc5sc(CC(F)(F)F)cc45)C3)cc2)nnc1OC [Example 126, (1S,3S,4S)—N^1-{[4-(5,6-dimethoxypyridazin-3-yl)phenyl]methyl}-4-methoxy-N^3-[6-(2,2,2-trifluoroethyl)thieno[2,3-d]pyrimidin-4-yl]cyclohexane-1,3-diamine Hydrochloride]
IC50 [1]: 7.5 nM

COc1cc(-c2ccc(CN[C@H]3C[C@@H](OC)[C@@H](N(C)c4ncnc5sc(CC(F)(F)F)cc45)C3)cc2)nnc1OC [Example 127, (1R,3S,4R)—N^1-{[4-(5,6-dimethoxypyridazin-3-yl)phenyl]methyl}-4-methoxy-N^3-methyl-N^3-[6-(2,2,2-trifluoroethyl)thieno[2,3-d]pyrimidin-4-yl]cyclopentane-1,3-diamine Hydrochloride]
IC50 [1]: 1.6 nM

COc1cncc(-c2ccc(CN[C@H]3C[C@@H](O)[C@@H](N(C)c4ncnc5sc(CC(F)(F)F)cc45)C3)cc2)c1 [Example 129, (1R,2S,4R)-4-({[4-(5-methoxypyridin-3-yl)phenyl]methyl}amino)-2-{methyl[6-(2,2,2-trifluoroethyl)thieno[2,3-d]pyrimidin-4-yl]amino}cyclopentan-1-ol Hydrochloride]
IC50 [1]: 5.5 nM
